We go through 14 compounds from patent US10308644B2, “Heterocyclic compounds as immunomodulators” (Incyte Corporation, priority 2016, dated 2019).

The assay has as its target PD-1/PD-L1 (Homo sapiens (Human), UniProt Q9NZQ7). Kind of assay: PD-1/PD-L1 Homogeneous Time-Resolved Fluorescence (HTRF) Binding Assay. Particulars: recombinant human PD-1 (3 nM) and PD-L1 (10 nM), 25° C., PBS pH 7.4. The essentials:
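Fc-tagged human PD-1 (25-167, 3 nM) and His-tagged PD-L1 (19-238, 10 nM) preincubated with inhibitor 40 min in PBS pH 7.4, 0.05% Tween-20, 0.1% BSA, 1% DMSO, 25 °C. Binding detected by HTRF (Eu anti-IgG/APC anti-His, 665/620 nm) after 60 min; IC50 from percent control activity.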

Molecules are shown by their SMILES.

Sequence of PD-1/PD-L1 (Q9NZQ7 19-238): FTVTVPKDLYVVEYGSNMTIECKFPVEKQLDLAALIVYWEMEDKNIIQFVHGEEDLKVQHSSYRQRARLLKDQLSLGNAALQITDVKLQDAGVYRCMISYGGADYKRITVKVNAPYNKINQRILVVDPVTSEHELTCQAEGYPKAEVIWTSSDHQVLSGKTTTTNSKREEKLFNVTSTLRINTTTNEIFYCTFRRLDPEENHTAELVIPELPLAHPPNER

In the case of `CCN(C)CC(=O)N1Cc2nc(-c3cccc(-c4cccc(-c5nc6cc(CN7CC[C@@](C)(C(=O)O)C7)cc(C#N)c6o5)c4C)c3C)oc2C1` [Example 243, (R)-1-((7-cyano-2-(3′-(5-(N-ethyl-N-methylglycyl)-5,6-dihydro-4H-pyrrolo[3,4-d]oxazol-2-yl)-2,2′-dimethyl-[1,1′-biphenyl]-3-yl)benzo[d]oxazol-5-yl)methyl)-3-methylpyrrolidine-3-carboxylic acid], the IC50 is no more than 0.01 µM.

On to `CCN(C)CC(=O)N1Cc2nc(-c3cccc(-c4cccc(-c5nc6cc(CN7CCC(C(=O)O)CC7)cc(C#N)c6o5)c4C)c3C)oc2C1` [Example 244, 1-((7-cyano-2-(3′-(5-(N-ethyl-N-methylglycyl)-5,6-dihydro-4H-pyrrolo[3,4-d]oxazol-2-yl)-2,2′-dimethyl-[1,1′-biphenyl]-3-yl)benzo[d]oxazol-5-yl)methyl)piperidine-4-carboxylic acid], for which the IC50 is no more than 0.01 µM.

As for `Cc1c(-c2nc3c(o2)CN(C(=O)CN(C)C)C3)cccc1-c1cccc(-c2nc3cc(CN4CC[C@@](C)(C(=O)O)C4)cc(C#N)c3o2)c1C` [Example 245, (R)-1-((7-cyano-2-(3′-(5-(dimethylglycyl)-5,6-dihydro-4H-pyrrolo[3,4-d]oxazol-2-yl)-2,2′-dimethyl[1,1′-biphenyl]-3-yl)benzo[d]oxazol-5-yl)methyl)-3-methylpyrrolidine-3-carboxylic acid], the IC50 was no more than 0.01 µM.

As for `Cc1c(-c2nc3c(o2)CN(C(=O)CN(C)C)C3)cccc1-c1cccc(-c2nc3cc(CN4CCC(C(=O)O)CC4)cc(C#N)c3o2)c1C` [Example 246, 1-((7-cyano-2-(3′-(5-(dimethylglycyl)-5,6-dihydro-4H-pyrrolo[3,4-d]oxazol-2-yl)-2,2′-dimethyl-[1,1′-biphenyl]-3-yl)benzo[d]oxazol-5-yl)methyl)piperidine-4-carboxylic acid], the IC50 is no more than 0.01 µM.

For the compound `Cc1c(-c2nc3c(o2)CN(C(=O)CN2CC[C@@H](O)C2)C3)cccc1-c1cccc(-c2nc3cc(CN4CC[C@@](C)(C(=O)O)C4)cc(C#N)c3o2)c1C` [Example 247, (R)-1-((7-cyano-2-(3′-(5-(2-((R)-3-hydroxypyrrolidin-1-yl)acetyl)-5,6-dihydro-4H-pyrrolo[3,4-d]oxazol-2-yl)-2,2′-dimethyl-[1,1′-biphenyl]-3-yl)-benzo[d]oxazol-5-yl)methyl)-3-methylpyrrolidine-3-carboxylic acid], the IC50 is no more than 0.01 µM.

As to `Cc1c(-c2nc3c(o2)CN(C(=O)CN(C)C(C)C)C3)cccc1-c1cccc(-c2nc3cc(CN4CC[C@@](C)(C(=O)O)C4)cc(C#N)c3o2)c1C` [Example 248, (R)-1-((7-cyano-2-(3′-(5-(N-isopropyl-N-methylglycyl)-5,6-dihydro-4H-pyrrolo[3,4-d]oxazol-2-yl)-2,2'-dimethyl-[1,1′-biphenyl]-3-yl)benzo[d]oxazol-5-yl)methyl)-3-methylpyrrolidine-3-carboxylic acid], the IC50 is no more than 0.01 µM.

Regarding `Cc1c(-c2nc3c(o2)CN(C(=O)CN2CCC(O)CC2)C3)cccc1-c1cccc(-c2nc3cc(CN4CC[C@@](C)(C(=O)O)C4)cc(C#N)c3o2)c1C` [Example 249, (R)-1-((7-cyano-2-(3′-(5-(2-(4-hydroxypiperidin-1-yl)acetyl)-5,6-dihydro-4H-pyrrolo[3,4-d]oxazol-2-yl)-2,2′-dimethyl-[1,1′-biphenyl]-3-yl)benzo[d]oxazol-5-yl)methyl)-3-methylpyrrolidine-3-carboxylic acid], the IC50 is no more than 0.01 µM.

Turning to `Cc1c(-c2nc3c(o2)CN(C(=O)CN2CCC(O)CC2)C3)cccc1-c1cccc(-c2nc3cc(CN4CC[C@@H](C(=O)O)C4)cc(C#N)c3o2)c1C` [Example 250, (R)-1-((7-cyano-2-(3′-(5-(2-(4-hydroxypiperidin-1-yl)acetyl)-5,6-dihydro-4H-pyrrolo[3,4-d]oxazol-2-yl)-2,2′-dimethyl-[1,1′-biphenyl]-3-yl)benzo[d]oxazol-5-yl)methyl)pyrrolidine-3-carboxylic acid], the IC50 is no more than 0.01 µM.

In the case of `Cc1c(-c2nc3c(o2)CN(C(=O)CN2CCC(O)CC2)C3)cccc1-c1cccc(-c2nc3cc(CN4CC5CC4CC5C(=O)O)cc(C#N)c3o2)c1C` (centres unmarked) [Example 251, 2-((7-cyano-2-(3′-(5-(2-(4-hydroxypiperidin-1-yl)acetyl)-5,6-dihydro-4H-pyrrolo[3,4-d]oxazol-2-yl)-2,2′-dimethyl-[1,1′-biphenyl]-3-yl)benzo[d]oxazol-5-yl)methyl)-2-azabicyclo[2.2.1]heptane-5-carboxylic acid], the IC50 is no more than 0.01 µM.

Consider `Cc1c(-c2nc3c(o2)CN(C(=O)CN(C)CCO)C3)cccc1-c1cccc(-c2nc3cc(CN4CC[C@@](C)(C(=O)O)C4)cc(C#N)c3o2)c1C` [Example 252, (R)-1-((7-cyano-2-(3′-(5-(N-(2-hydroxyethyl)-N-methylglycyl)-5,6-dihydro-4H-pyrrolo[3,4-d]oxazol-2 yl)-2,2'-dimethyl-[1,1′-biphenyl]-3-yl)benzo[d]oxazol-5-yl)methyl)-3-methylpyrrolidine-3-carboxylic acid], for which the IC50 is no more than 0.01 µM.

With `Cc1c(-c2nc3c(o2)CN(C(=O)CN2CCN(C)CC2)C3)cccc1-c1cccc(-c2nc3cc(CN4CC5CC4CC5C(=O)O)cc(C#N)c3o2)c1C` (centres unmarked) [Example 253, 2-((7-cyano-2-(2,2′-dimethyl-3,-(5-(2-(4-methylpiperazin-1-yl)acetyl)-5,6-dihydro-4H-pyrrolo[3,4-d]oxazol-2-yl)-[1,1′-biphenyl]-3-yl)benzo[d]oxazol-5-yl)methyl)-2-azabicyclo[2.2.1]heptane-5-carboxylic acid], the IC50 was no more than 0.01 µM.

For the compound `Cc1c(-c2nc3c(o2)CN(C(=O)CN2CCN(C)CC2)C3)cccc1-c1cccc(-c2nc3cc(CN4CC[C@@](C)(C(=O)O)C4)cc(C#N)c3o2)c1C` [Example 254, (R)-1-((7-cyano-2-(2,2′-dimethyl-3′-(5-(2-(4-methylpiperazin-1-yl)acetyl)-5,6-dihydro-4H-pyrrolo[3,4-d]oxazol-2-yl)-[1,1′-biphenyl]-3-yl)benzo[d]oxazol-5-yl)methyl)-3-methylpyrrolidine-3-carboxylic acid], the IC50 is no more than 0.01 µM.

Turning to `Cc1c(-c2nc3c(o2)CN(C(=O)CN2CC4CC2CN4C)C3)cccc1-c1cccc(-c2nc3cc(CN4CC[C@@H](C(=O)O)C4)cc(C#N)c3o2)c1C` (stereo partly drawn) [Example 255, (3R)-1-((7-cyano-2-(2,2′-dimethyl-3′-(5-(2-(5-methyl-2,5-diazabicyclo[2.2.1]heptan-2-yl)acetyl)-5,6-dihydro-4H-pyrrolo[3,4-d]oxazol-2-yl)biphenyl-3-yl)benzo[d]oxazol-5-yl)methyl)pyrrolidine-3-carboxylic acid], the 50% inhibitory concentration (IC50) is no more than 0.01 µM.

As for `Cc1c(-c2nc3cc(CN4CC[C@@H](C(=O)O)C4)cc(C#N)c3o2)cccc1-c1cccc(-c2nc3c(o2)CN(C(=O)CN2CC[C@@H](O)C2)C3)c1Cl` [Example 256, (R)-1-((2-(2′-chloro-3′-(5-(2-((R)-3-hydroxypyrrolidin-1-yl)acetyl)-5,6-dihydro-4H-pyrrolo[3,4-d]oxazol-2-yl)-2-methyl-[1,1′-biphenyl]-3-yl)-7-cyanobenzo[d]oxazol-5-yl)methyl)pyrrolidine-3-carboxylic acid], the IC50 is no more than 0.01 µM.
